Laboratory results taken from patent US20250074871A1, “PHENETHYLAMINES AND METHODS OF PREPARATION THEREOF” (priority 2022, published 2025).
Like-named read-outs stand apart in the source and are kept apart here.

Tests used:
5-HT2A receptor = molecular target: T1, 5-HT2A receptor (Homo sapiens, UniProt P28223); experiment: 5-HT2A Gq dissociation BRET functional assay; type: cell-based; details: for 5-HT2A BRET Eff %: normalized to % 5-HT stimulation
T1 construct: expressed in transfected cells; host or cells: HEK293T

5-HT2B receptor = molecular target: T2, 5-HT2B receptor (Homo sapiens, UniProt P41595); experiment: 5-HT2B Gq dissociation BRET functional assay; type: cell-based; details: Table 2; for EC50: at least three replicate trials; for 5-HT2B BRET Eff %: normalized to % 5-HT stimulation
T2 construct: expressed in transfected cells; host or cells: HEK293T

5-HT2C receptor = molecular target: T3, 5-HT2C receptor (Homo sapiens, UniProt P28335); experiment: cell-based; type: cell-based; details: Table 2; for EC50: at least three replicate trials, read-out: 5-HT2C BRET EC50; for 5-HT2C BRET Eff %: normalized to % 5-HT stimulation
T3 construct: expressed in transfected cells; host or cells: HEK293T
T3 sequence (P28335 33-458): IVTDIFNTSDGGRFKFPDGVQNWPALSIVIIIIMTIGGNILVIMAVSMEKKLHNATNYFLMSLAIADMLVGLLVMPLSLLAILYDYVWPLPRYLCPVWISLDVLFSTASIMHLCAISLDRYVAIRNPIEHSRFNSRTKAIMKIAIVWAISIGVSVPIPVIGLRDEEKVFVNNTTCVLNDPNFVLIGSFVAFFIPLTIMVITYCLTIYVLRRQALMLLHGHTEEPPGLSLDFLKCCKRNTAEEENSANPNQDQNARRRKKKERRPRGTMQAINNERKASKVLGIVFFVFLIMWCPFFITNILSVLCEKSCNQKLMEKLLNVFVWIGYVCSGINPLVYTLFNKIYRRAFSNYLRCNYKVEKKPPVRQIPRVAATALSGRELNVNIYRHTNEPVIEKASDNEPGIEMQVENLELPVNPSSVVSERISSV

[1] = molecular target: T4, human ether-a-go-go-related gene (hERG) K+ channel (Homo sapiens, UniProt Q12809); experiment: Eurofins hERG Qube APC Assay; type: cell-based; details: for IC50 (hERG)/EC50 (5-HT2A) ratio: Table 4; for hERG risk potential: based on IC50 (hERG)/EC50 (5-HT2A) ratio
T4 construct: Eurofins
Description: As used herein and unless otherwise specified, the term “hERG risk” refers to the risk of a compound potentially inhibiting the human ether-a-go-go-related gene (hERG) K^+ channel, thereby leading to QT prolongation.
As a result of, many compounds disclosed in Table 1 and Table 2 were screened for the potential of “hERG risk” using pharmacological assays (e.g. Eurofins™ hERG Qube APC Assay). […].

mice = experiment: head-twitch response (HTR) in mice; type: in vivo, male C57BL/6J mice; details: Mus musculus; mice
Description: As used herein and unless otherwise specified, the term “HTR” refers to head-twitch response, which is a measurement of 5-HT2A activation in vivo.
As used herein and unless otherwise specified, the term “mice” refers to male C57BL/6J mice (6-8 weeks old).
HTR was assessed using a head-mounted neodymium magnet and a magnetometer detection coil, as described in Halberstadt et al., Psychopharmacology (Berl.), 2013, 227(4): 727-739. Table 8 below summarizes the ED50 in head twitch in mice of various compounds disclosed herein as compared to psilocybin. FIG. 3 illustrates the HTR relative to dose for compound 109: […]

[2] = 5-HT2A BRET EC50 (nM), Table 2, at least three replicate trials
[3] = EC50 BRET 2A, Table 4, unit inferred

T1 sequence (P28223 whole entry): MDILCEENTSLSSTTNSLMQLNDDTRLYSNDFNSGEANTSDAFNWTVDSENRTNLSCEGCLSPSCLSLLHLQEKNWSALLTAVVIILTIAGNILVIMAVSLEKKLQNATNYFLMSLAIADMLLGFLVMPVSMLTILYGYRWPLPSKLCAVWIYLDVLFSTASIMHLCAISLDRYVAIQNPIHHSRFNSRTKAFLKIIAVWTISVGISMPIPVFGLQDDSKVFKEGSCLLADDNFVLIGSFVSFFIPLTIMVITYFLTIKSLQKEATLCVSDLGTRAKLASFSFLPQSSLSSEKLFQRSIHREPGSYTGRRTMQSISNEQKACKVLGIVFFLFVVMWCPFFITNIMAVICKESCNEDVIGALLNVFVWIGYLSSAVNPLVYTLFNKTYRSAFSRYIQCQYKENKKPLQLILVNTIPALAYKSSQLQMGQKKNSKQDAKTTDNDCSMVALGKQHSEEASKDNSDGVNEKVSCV
T4 sequence (Q12809 whole entry): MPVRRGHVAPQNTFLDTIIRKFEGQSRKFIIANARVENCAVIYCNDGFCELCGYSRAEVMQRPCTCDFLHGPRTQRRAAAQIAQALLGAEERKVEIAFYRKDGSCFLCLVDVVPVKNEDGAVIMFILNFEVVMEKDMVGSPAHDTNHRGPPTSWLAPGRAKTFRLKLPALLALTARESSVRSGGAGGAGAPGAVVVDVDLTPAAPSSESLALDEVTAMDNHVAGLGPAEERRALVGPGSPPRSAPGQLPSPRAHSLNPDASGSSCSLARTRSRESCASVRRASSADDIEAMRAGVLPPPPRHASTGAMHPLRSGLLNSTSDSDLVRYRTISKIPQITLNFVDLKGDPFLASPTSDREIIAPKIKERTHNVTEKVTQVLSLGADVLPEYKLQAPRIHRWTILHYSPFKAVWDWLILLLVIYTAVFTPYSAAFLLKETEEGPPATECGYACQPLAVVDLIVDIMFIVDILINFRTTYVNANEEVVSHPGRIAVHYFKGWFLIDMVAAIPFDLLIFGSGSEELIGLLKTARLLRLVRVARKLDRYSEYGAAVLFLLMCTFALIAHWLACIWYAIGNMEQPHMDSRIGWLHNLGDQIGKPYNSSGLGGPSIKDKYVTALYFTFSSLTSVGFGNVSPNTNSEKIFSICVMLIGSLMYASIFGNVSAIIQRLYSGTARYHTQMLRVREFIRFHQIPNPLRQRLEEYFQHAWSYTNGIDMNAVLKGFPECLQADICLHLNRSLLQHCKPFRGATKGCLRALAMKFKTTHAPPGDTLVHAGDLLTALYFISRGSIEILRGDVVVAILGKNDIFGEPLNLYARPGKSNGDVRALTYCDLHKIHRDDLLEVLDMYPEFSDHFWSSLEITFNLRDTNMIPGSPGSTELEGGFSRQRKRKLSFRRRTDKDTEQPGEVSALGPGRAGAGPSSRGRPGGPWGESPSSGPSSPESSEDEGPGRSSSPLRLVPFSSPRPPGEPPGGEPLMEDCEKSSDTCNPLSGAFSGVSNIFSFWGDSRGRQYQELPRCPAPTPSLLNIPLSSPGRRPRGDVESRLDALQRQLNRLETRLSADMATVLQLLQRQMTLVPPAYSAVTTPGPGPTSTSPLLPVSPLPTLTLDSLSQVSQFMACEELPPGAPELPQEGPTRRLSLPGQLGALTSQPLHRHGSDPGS
T2 sequence (P41595 whole entry): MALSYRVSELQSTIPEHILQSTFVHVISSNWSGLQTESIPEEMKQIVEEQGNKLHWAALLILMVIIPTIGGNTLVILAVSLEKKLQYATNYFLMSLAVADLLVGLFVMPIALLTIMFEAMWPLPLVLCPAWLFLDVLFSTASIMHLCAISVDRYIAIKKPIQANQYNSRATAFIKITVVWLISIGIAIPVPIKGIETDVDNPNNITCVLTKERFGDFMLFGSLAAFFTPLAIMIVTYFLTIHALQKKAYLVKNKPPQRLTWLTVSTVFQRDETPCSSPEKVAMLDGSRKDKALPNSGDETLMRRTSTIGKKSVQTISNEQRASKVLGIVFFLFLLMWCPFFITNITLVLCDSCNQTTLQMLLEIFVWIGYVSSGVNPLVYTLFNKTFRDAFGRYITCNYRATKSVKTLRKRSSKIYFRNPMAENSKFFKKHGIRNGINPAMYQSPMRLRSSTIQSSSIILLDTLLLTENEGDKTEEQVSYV

SMILES | EC50 (5-HT2A receptor; [2]) | EC50 (5-HT2A receptor; [3]) | 5-HT2A BRET Eff % (5-HT2A receptor; Table 2) | 5-HT2B BRET EC50 (nM) / Eff % (5-HT2B receptor) | EC50 (5-HT2C receptor) | 5-HT2C BRET Eff % (5-HT2C receptor) | IC50 [1] | IC50 (hERG)/EC50 (5-HT2A) ratio [1] | hERG risk potential [1] | EC50 (5-HT2B receptor; 5-HT2B BRET EC50 (nM)) | 5-HT2B BRET Eff % (5-HT2B receptor) | ED50 (mice) | EC50 (5-HT2A receptor; Table 2, at least three replicate trials, read-out: 5-HT2A BRET EC50) | EC50 (5-HT2A receptor; Table 4, unit inferred, read-out: EC50 BRET 2A) | EC50 (5-HT2B receptor; read-out: 5-HT2B BRET EC50)
COc1cc(C#N)ccc1CCNCc1ccccc1Cl [Cpd #12] | 102 nM | 102 nM | 90% | Inactive | 1200 nM | 130% | 1720 nM | 17 | High (compounds exhibiting a IC50 (hERG) /EC50 (5-HT2A) ratio of less than or equal to 150 are generally indicative of high hERG risk potential) |  |  |  |  |  | 
COc1cc(C#N)ccc1CCNCc1ccccc1OC [Cpd #27] | 4.2 nM | 4.2 nM | 96% |  | 15.9 nM | 109% | 2000 nM | 476 |  | 423 nM | 66% | 3 mg/kg |  |  | 
COc1cccc(CNCCc2ccc(C#N)cc2OC)c1 [Cpd #28] | 84 nM | 84 nM | 68% | Inactive | 873 nM | 91% | 1600 nM | 19 | High (compounds exhibiting a IC50 (hERG) /EC50 (5-HT2A) ratio of less than or equal to 150 are generally indicative of high hERG risk potential) |  |  |  |  |  | 
COc1cc(C#N)ccc1CCNCc1cccc2c1CCO2 [Cpd #63] | 135 nM | 135 nM | 62% | Inactive | 2090 nM | 78% | 1600 nM | 12 | High (compounds exhibiting a IC50 (hERG) /EC50 (5-HT2A) ratio of less than or equal to 150 are generally indicative of high hERG risk potential) |  |  |  |  |  | 
COc1cc(C#N)ccc1CCNCc1cccc2occc12 [Cpd #64] |  |  | 82% |  | 357 nM | 104% | 900 nM | 30 | High (compounds exhibiting a IC50 (hERG) /EC50 (5-HT2A) ratio of less than or equal to 150 are generally indicative of high hERG risk potential) |  | 93% |  | 29.8 nM | 29.8 nM | 8920 nM
COc1cc(C#N)ccc1CCNCc1cccc2c1OCO2 [Cpd #65] | 19.7 nM | 19.7 nM | 84% | Inactive | 496 nM | 97% | 2000 nM | 102 | High (compounds exhibiting a IC50 (hERG) /EC50 (5-HT2A) ratio of less than or equal to 150 are generally indicative of high hERG risk potential) |  |  |  |  |  | 
COc1cc(C#N)ccc1CCNCc1ccccc1SC [Cpd #108] | 2.4 nM | 2.4 nM | 99% |  | 16 nM | 103% | 1780 nM | 742 |  | 2380 nM | 128% | 7.23 mg/kg |  |  | 
COc1cc(C#N)c(F)cc1CCNCc1ccccc1O [Cpd #117] | 3.8 nM | 3.8 nM | 97% |  | 40.8 nM | 115% | 900 nM | 237 |  | 4360 nM | 68% | 2.09 mg/kg |  |  | 
CSc1ccc(CCNCc2ccccc2O)c(O)c1 [Cpd #122] | 1.6 nM | 1.4 nM | 92% | inactive | 3.6 nM | 108% | 790 nM | 564 |  |  |  |  |  |  | 
